Columns and labels:
mGlu2 = mGlu2 (Homo sapiens, UniProt Q14416); assay: mGlu selectivity cell based functional assay; conditions: tested at 10 μM
human mGlu1 = human mGlu1 (Homo sapiens, UniProt Q13255); assay: Calcium mobilization mGlu1 assay; format: cell-based; conditions: for LLE: ligand-lipophilicity efficiency = pIC50−cLogP; for mGlu1 antagonism (in words): up to the top concentration of 30 μM
CYP3A4 = CYP3A4 (Homo sapiens, UniProt P08684); assay: Cytochrome P450 inhibition assay in pooled human liver microsomes; format: in vitro ADME
mGlu4 = mGlu4 (Homo sapiens, UniProt Q14833); assay: mGlu selectivity cell based functional assay; conditions: tested at 10 μM
mGlu8 = mGlu8 (Homo sapiens, UniProt O00222); assay: mGlu selectivity cell based functional assay; conditions: tested at 10 μM
mGlu3 = mGlu3 (Homo sapiens, UniProt Q14832); assay: mGlu selectivity cell based functional assay; conditions: tested at 10 μM
mGlu6 = mGlu6 (Homo sapiens, UniProt O15303); assay: mGlu selectivity cell based functional assay; conditions: tested at 10 μM
mGlu7 = mGlu7 (Homo sapiens, UniProt Q14831); assay: mGlu selectivity cell based functional assay; conditions: tested at 10 μM

human mGlu1, sequence (Q13255 19-1194): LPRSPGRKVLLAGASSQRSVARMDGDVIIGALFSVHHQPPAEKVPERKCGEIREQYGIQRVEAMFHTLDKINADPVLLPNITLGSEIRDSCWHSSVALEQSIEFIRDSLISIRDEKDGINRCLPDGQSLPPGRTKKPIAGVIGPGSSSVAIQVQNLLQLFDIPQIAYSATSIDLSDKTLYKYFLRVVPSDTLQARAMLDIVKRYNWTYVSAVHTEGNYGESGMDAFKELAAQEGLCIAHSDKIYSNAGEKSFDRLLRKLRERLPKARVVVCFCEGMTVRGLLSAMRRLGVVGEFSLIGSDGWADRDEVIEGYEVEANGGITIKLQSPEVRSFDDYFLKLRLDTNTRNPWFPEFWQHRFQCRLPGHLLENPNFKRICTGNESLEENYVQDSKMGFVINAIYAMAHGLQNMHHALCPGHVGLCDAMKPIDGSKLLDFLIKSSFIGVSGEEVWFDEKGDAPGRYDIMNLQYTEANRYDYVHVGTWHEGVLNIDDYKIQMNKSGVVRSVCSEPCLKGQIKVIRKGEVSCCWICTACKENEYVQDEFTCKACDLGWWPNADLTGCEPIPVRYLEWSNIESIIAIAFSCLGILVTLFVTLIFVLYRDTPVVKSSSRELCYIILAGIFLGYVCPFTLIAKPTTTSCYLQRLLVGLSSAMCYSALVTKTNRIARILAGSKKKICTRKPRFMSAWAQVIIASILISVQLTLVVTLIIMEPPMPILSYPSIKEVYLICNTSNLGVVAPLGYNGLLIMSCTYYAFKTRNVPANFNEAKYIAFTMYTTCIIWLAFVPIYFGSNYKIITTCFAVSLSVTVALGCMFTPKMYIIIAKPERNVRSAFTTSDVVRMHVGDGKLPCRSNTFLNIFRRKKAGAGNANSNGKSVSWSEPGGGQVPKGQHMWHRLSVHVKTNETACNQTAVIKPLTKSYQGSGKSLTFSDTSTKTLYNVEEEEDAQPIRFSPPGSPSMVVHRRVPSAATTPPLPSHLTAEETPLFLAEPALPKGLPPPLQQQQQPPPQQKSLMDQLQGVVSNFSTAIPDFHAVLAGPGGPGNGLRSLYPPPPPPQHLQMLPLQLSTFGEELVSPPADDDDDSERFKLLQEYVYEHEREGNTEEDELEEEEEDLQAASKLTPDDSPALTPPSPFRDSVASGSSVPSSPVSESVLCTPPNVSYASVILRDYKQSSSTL
mGlu3, sequence (Q14832 23-879): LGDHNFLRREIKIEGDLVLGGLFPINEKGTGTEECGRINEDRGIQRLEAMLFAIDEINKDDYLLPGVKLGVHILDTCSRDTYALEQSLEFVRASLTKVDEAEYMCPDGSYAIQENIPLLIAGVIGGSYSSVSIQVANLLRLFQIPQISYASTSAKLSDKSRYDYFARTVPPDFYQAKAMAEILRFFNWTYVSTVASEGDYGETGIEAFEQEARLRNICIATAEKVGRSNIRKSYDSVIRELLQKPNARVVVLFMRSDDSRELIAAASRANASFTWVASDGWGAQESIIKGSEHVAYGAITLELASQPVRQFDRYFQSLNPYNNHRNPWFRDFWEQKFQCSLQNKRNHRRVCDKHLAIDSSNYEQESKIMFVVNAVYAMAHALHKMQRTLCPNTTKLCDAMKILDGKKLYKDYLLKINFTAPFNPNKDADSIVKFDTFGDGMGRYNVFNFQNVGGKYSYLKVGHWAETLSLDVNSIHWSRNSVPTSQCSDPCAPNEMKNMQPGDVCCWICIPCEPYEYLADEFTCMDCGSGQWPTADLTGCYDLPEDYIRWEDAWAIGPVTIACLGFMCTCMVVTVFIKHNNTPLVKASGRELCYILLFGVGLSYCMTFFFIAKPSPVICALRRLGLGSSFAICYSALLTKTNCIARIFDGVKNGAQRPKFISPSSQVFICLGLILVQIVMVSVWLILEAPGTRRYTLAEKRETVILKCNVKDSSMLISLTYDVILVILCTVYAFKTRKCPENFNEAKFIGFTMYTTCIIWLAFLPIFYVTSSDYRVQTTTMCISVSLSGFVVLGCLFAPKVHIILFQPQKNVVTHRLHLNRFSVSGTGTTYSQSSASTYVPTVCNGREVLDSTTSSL
mGlu2, sequence (Q14416 19-872): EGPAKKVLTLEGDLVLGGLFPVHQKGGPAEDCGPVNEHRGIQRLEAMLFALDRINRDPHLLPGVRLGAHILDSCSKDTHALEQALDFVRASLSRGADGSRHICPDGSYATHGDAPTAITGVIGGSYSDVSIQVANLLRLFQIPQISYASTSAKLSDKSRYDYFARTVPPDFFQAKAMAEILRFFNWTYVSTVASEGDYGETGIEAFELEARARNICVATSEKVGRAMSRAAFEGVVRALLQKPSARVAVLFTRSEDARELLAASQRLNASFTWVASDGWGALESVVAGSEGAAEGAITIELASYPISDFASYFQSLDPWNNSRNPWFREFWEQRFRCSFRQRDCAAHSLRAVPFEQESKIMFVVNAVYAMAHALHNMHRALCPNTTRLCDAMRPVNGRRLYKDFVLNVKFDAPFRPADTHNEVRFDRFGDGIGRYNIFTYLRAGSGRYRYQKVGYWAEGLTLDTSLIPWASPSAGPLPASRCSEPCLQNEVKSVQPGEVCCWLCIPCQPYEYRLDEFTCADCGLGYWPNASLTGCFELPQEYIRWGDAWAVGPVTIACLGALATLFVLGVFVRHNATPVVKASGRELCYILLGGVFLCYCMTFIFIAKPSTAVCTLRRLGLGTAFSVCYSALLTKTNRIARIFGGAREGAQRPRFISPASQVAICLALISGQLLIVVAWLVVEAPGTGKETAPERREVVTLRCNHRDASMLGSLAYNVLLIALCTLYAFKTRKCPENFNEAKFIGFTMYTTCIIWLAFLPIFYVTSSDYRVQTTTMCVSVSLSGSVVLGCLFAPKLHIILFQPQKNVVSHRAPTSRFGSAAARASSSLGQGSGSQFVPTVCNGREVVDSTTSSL
mGlu8, sequence (O00222 34-908): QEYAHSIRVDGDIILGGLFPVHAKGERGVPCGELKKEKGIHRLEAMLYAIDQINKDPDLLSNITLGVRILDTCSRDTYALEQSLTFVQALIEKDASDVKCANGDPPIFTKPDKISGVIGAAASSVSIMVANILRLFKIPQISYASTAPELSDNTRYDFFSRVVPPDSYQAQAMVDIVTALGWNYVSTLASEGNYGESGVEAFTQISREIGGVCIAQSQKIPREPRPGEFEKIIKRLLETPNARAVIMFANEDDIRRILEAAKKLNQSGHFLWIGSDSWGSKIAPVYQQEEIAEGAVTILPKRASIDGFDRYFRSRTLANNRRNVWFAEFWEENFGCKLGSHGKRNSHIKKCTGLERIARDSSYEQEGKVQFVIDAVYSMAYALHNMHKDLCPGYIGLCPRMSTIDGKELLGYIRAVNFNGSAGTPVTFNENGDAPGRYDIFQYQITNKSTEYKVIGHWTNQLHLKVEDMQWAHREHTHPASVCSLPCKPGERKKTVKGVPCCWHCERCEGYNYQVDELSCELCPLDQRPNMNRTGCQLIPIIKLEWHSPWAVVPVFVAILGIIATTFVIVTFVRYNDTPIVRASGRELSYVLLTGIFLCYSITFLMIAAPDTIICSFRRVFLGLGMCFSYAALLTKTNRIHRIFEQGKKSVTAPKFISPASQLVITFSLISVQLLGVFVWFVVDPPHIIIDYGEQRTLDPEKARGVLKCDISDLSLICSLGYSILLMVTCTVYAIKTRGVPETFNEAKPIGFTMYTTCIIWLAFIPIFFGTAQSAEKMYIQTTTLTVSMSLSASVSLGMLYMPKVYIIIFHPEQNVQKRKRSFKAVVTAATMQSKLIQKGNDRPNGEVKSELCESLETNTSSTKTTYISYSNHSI
CYP3A4, sequence (P08684 whole entry): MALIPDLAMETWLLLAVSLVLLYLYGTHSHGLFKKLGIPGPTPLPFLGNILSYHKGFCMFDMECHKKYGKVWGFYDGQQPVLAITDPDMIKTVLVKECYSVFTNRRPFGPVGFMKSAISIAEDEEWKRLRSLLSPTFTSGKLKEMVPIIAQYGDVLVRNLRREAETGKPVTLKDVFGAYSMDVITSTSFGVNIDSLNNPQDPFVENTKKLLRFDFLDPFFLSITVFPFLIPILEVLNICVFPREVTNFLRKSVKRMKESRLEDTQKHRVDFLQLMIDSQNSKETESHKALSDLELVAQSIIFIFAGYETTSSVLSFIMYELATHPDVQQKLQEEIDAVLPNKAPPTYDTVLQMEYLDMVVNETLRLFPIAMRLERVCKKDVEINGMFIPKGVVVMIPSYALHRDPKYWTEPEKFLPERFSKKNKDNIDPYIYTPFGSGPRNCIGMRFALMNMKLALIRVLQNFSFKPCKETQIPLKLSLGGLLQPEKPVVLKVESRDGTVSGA

SMILES | LLE (human mGlu1) | mGlu1 antagonism (in words) (human mGlu1) | mGlu1 potency relative to 8 (fold less potent) (human mGlu1) | also measured
CC(C)(C)C(=O)N1C[C@@H]2CN(c3ccccn3)C[C@@H]2C1 [Compound 9] | – | inactive | – | –
CC1(C(=O)N2C[C@@H]3CN(c4ccccn4)C[C@@H]3C2)CCCCC1 [Compound 14] | – | – | sixty | –
O=C(N1C[C@@H]2CN(c3nccs3)C[C@@H]2C1)C12CC3CC(CC(C3)C1)C2 [Compound 23] | – | only weak antagonists | – | –
O=C(N1C[C@@H]2CN(c3ccncn3)C[C@@H]2C1)C12CC3CC(CC(C3)C1)C2 [Compound 25] | – | only weak antagonists | – | –
O=C(N1C[C@@H]2CN(c3cnccn3)C[C@@H]2C1)C12CC3CC(CC(C3)C1)C2 [Compound 26] | 1.21 | – | eight fold | –
O=C(N1C[C@@H]2CN(c3cccc(F)n3)C[C@@H]2C1)C12CC3CC(CC(C3)C1)C2 [Compound 27] | 2.50 | – | equipotent | –
O=C(N1C[C@@H]2CN(c3ncccc3F)C[C@@H]2C1)C12CC3CC(CC(C3)C1)C2 [Compound 29] | – | – | 12 fold | –
N#Cc1ccncc1N1C[C@H]2CN(C(=O)C34CC5CC(CC(C5)C3)C4)C[C@H]2C1 [Compound 32] | – | moderate potency | – | –
O=C(N1C[C@@H]2CN(c3ccccn3)C[C@@H]2C1)N1CCC2(CCCC2)C1 [Compound 38] | 4.12 | – | three fold | activity at mGlu2 (mGlu2): no activity; activity at mGlu4 (mGlu4): no activity; activity at mGlu8 (mGlu8): very weak and marginally significant activity; activity at mGlu3 (mGlu3): no activity; activity at mGlu6 (mGlu6): very weak and marginally significant activity; activity at mGlu7 (mGlu7): no activity
C[C@@H]1CN(c2cccnc2C#N)CCN1C(=O)C12CC3CC(CC(C3)C1)C2 [VU0469650, reference compound] | – | – | – | CYP3A4 inhibition (in words) (CYP3A4): moderate inhibitors

Continued, in another order:

LLE (human mGlu1) | mGlu1 antagonism (in words) (human mGlu1) | mGlu1 potency relative to 8 (fold less potent) (human mGlu1) | SMILES | also measured
2.79 | – | – | O=C(N1C[C@@H]2CN(c3ccccn3)C[C@@H]2C1)C12CC3CC(CC(C3)C1)C2 [Compound 8] | activity at mGlu2 (mGlu2): no activity; human mGlu1 potency relative to 1 (fold more potent) (human mGlu1): greater than seven fold; CYP3A4 inhibition (in words) (CYP3A4): moderate inhibitors; activity at mGlu4 (mGlu4): no activity; activity at mGlu8 (mGlu8): very weak and marginal activity; activity at mGlu3 (mGlu3): no activity; activity at mGlu6 (mGlu6): very weak and marginal activity; activity at mGlu7 (mGlu7): very weak and marginal activity
– | inactive | – | CC(C)(C)CC(=O)N1C[C@@H]2CN(c3ccccn3)C[C@@H]2C1 [Compound 16] | –
– | only weak antagonists | – | O=C(N1C[C@@H]2CN(c3ncccn3)C[C@@H]2C1)C12CC3CC(CC(C3)C1)C2 [Compound 24] | –
1.88 | – | six fold | O=C(N1C[C@@H]2CN(c3ccc(F)cn3)C[C@@H]2C1)C12CC3CC(CC(C3)C1)C2 [Compound 28] | –
2.18 | – | – | N#Cc1ccccc1N1C[C@H]2CN(C(=O)C34CC5CC(CC(C5)C3)C4)C[C@H]2C1 [Compound 30] | –
2.87 | moderate potency | – | N#Cc1ncccc1N1C[C@H]2CN(C(=O)C34CC5CC(CC(C5)C3)C4)C[C@H]2C1 [Compound 34] | –
2.71 | – | – | O=C(N1CCC2(CCCCC2)CC1)N1C[C@@H]2CN(c3ccccn3)C[C@@H]2C1 [Compound 40] | –

— PMC3901432 (Bioorganic & medicinal chemistry letters, 2013)
